Results from ChEMBL document CHEMBL4007462, “Chemical and bioactivity of flavanones obtained from roots of Dalea pazensis Rusby” (Bioorg Med Chem Lett, 2017).
The source made the active and inactive calls. The rule behind the calls is not given here.

Key:
in vitro = conditions: mouse, B16 cells
Description: Cytotoxicity against mouse B16 cells after 24 hrs by MTT assay

B16 = experiment: Inhibition of melanin formation from L-DOPA in mouse B16 cells preincubated for 24 hrs followed by L-DOPA addition and subsequent incubation for 20 mins measured at 1 min interval for 10 mins by MBTH reagent based spectrophotometric method; assay type: functional, cell-based
Mushroom tyrosinase = Mushroom tyrosinase (Agaricus bisporus, UniProt O42713+Q00024+C7FF04+C7FF05); experiment: Inhibition of mushroom tyrosinase using L-tyrosine as substrate preincubated for 10 mins followed by substrate addition measured after 20 mins by spectrophotometric method
Tyrosinase = target: T1, Tyrosinase (Mus musculus, UniProt P11344)
T1 sequence (P11344 whole entry): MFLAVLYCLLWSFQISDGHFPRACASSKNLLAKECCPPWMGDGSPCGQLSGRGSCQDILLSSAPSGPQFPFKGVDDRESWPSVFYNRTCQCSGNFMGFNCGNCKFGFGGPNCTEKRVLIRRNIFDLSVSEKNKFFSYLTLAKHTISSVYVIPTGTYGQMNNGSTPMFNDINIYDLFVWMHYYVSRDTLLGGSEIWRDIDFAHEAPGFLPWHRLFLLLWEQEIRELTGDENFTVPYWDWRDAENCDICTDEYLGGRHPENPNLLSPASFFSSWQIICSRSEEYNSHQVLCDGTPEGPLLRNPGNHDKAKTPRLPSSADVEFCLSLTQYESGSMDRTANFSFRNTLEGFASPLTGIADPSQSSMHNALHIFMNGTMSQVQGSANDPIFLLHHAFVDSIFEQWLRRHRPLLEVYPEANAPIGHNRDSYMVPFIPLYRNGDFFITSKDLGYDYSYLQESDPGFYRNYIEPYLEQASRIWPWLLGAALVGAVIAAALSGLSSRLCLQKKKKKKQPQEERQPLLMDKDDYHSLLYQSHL
Description: Inhibition of tyrosinase in mouse B16 cells assessed as reduction in melanin production measured after 24 hrs

[1] = target: T2, Mushroom tyrosinase (Agaricus bisporus) (UniProt O42713+Q00024+C7FF04+C7FF05); experiment: Inhibition of mushroom tyrosinase at 100 uM using L-tyrosine as substrate preincubated for 10 mins followed by substrate addition measured after 20 mins by spectrophotometric method relative to control
[2] = target: T2, Mushroom tyrosinase (Agaricus bisporus); experiment: Inhibition of mushroom tyrosinase at 10 uM using L-tyrosine as substrate preincubated for 10 mins followed by substrate addition measured after 20 mins by spectrophotometric method relative to control
[3] = target: T3, Tyrosinase (Mus musculus) (UniProt P11344); experiment: (§1) Inhibition of intracellular tyrosinase activity in mouse B16 cells at 5 uM using L-DOPA as substrate preincubated for 24 hrs followed by substrate addition and subsequent incubation for 20 mins measured at 1 min interval for 10 mins by MBTH reagent based spectrophotometric method relative to control; assay type: cell-based
T3 sequence (whole entry): T1 sequence (P11344 whole entry)

[4] = target: T3, Tyrosinase (Mus musculus); experiment: as §1, with “0.05” for “5”; assay type: cell-based

MNTC at 24 h (in vitro) [µM]	IC50 (Mushroom tyrosinase) [µM]	IC50 (Tyrosinase) [µM]	inhibition [1] [%]	inhibition [2] [%]	inhibition [3] [%]	inhibition [4] [%]	SMILES	inhibition (B16)
5	49.8	5	63.8	21.5			C=CC(C)(C)c1cc(C2CC(=O)c3c(O)cc(O)c(CC=C(C)C)c3O2)c(OC)cc1O (stereo not drawn)	Active
50		5	0	0			C=CC(C)(C)c1cc(C2CC(=O)c3c(cc(O)c(CC=C(C)C)c3O)O2)c(OC)cc1O (stereo not drawn)	Active
1		0.75	9.4	2.84			CC(C)=CCc1c(O)cc2c(c1O)C(=O)CC(c1ccc(O)c(O)c1CC=C(C)C)O2 (stereo not drawn)	Active
10	2.32	1	95	90.5	31.8	20.6	C=CC(C)(C)c1cc(C2CC(=O)c3c(O)cc(O)c(CC=C(C)C)c3O2)c(O)cc1O (stereo not drawn)	
